According to ChEMBL document CHEMBL5500407, “Designing Chromane Derivatives as α2A-Adrenoceptor Selective Agonists via Conformation Constraint” (J Med Chem, 2024):
Activity calls are given as the source filed them. No cut-off for these calls is given here.

Tests used:
Mus musculus [1] = assay: Hypnotic activity in C57BL/6 mouse assessed as increase in loss of righting reflex (LORR) in presence of BRL44408 alpha2A-adrenoceptor antagonist at 0.60 mg/kg, ip; format: functional, organism-based; conditions: dose 0.6 mg/kg
HEK293T [2] = assay: Agonist activity at alpha2A-adrenoceptor D128A mutant (unknown origin) expressed in HEK293T cells co-expressing pGloSensor-22F cAMP plasmid assessed as at 0.000001 to 100 uM measured after 10 mins incubation by multiplate reader; format: cell-based; conditions: Homo sapiens, dose lower 1e-06 µM, dose upper 100.0 µM
Mus musculus [3] = assay: Hypnotic activity in C57BL/6 mouse assessed as increase in loss of righting reflex (LORR) in presence of atipamezole alpha2-adrenoceptor antagonist at 0.60 mg/kg, ip; format: functional, organism-based; conditions: dose 0.6 mg/kg
HEK293T [4] = assay: Agonist activity at alpha2A-adrenoceptor Y409A mutant (unknown origin) expressed in HEK293T cells co-expressing pGloSensor-22F cAMP plasmid assessed as at 0.000001 to 100 uM measured after 10 mins incubation by multiplate reader; format: cell-based; conditions: Homo sapiens, dose lower 1e-06 µM, dose upper 100.0 µM
[5] = biological target: T1, Alpha-2C adrenergic receptor (Homo sapiens, UniProt P18825); assay: Agonist activity at alpha2C-adrenoceptor (unknown origin) expressed in CHO-alpha2C-PKAcatEGFP cells assessed as increase in intracellular calcium level measured after 15 mins incubation by Micro automated microscopy; format: functional, cell-based
T1 sequence (P18825 whole entry): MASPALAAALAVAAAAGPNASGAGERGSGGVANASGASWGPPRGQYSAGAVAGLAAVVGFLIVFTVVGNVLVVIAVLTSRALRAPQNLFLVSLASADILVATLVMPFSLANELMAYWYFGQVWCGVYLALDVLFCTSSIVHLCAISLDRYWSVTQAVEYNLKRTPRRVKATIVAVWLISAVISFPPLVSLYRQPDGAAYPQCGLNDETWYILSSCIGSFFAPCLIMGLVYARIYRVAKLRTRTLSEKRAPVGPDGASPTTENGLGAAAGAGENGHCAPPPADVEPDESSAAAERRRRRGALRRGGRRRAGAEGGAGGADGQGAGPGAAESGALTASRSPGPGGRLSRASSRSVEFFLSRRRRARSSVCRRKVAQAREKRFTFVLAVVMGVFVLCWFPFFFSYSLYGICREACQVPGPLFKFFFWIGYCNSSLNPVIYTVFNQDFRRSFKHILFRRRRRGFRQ

[6] = Metabolic stability in mouse liver microsomes assessed as intrinsic clearance; format: ADME, Microsome; conditions: read-out: CLH
Mus musculus [7] = assay: Hypnotic activity in ip dosed C57BL/6 mouse assessed as increase in immobility time; format: functional, organism-based
Mus musculus [8] = assay: Hypnotic activity in C57BL/6 mouse assessed as increase in loss of righting reflex (LORR) in presence of JP1302 alpha2C-adrenoceptor antagonist at 0.60 mg/kg, ip; format: functional, organism-based; conditions: dose 0.6 mg/kg
[9] = Metabolic stability in mouse liver microsomes assessed as elimination half life; format: ADME, Microsome
HEK293T [10] = assay: Agonist activity at alpha2A-adrenoceptor F427A mutant (unknown origin) expressed in HEK293T cells co-expressing pGloSensor-22F cAMP plasmid assessed as at 1 to 100 uM measured after 10 mins incubation by multiplate reader; format: cell-based; conditions: Homo sapiens, filed as agonist, dose 1-100 µM
[11] = biological target: T2, Alpha-1A adrenergic receptor (Homo sapiens, UniProt P35348); assay: Agonist activity at alpha1A-adrenoceptor (unknown origin) expressed in HEK293T cells assessed as fluorescence intensity measured after 30 mins by IP-one homogeneous time-resolved fluorescence assay; format: functional, cell-based
T2 sequence (P35348 whole entry): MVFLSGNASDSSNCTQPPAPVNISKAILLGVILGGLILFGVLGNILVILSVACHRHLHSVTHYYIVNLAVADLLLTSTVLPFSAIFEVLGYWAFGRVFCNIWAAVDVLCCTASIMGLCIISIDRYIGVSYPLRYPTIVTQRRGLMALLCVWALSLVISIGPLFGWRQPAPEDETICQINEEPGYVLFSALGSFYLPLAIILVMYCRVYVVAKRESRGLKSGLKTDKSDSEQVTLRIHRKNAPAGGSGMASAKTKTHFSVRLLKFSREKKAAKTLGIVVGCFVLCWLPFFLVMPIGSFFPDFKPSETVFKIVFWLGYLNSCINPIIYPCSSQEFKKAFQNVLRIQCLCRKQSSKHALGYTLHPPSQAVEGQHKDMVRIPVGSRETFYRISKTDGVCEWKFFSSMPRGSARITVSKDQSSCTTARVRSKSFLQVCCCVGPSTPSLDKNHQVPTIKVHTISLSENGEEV

Mus musculus [12] = assay: Hypnotic activity in C57BL/6 mouse assessed as increase in induction time righting reflex (LORR) in presence of atipamezole alpha2-adrenoceptor antagonist at 0.60 mg/kg, ip; format: functional, organism-based; conditions: dose 0.6 mg/kg
Mus musculus [13] = assay: Hypnotic activity in C57BL/6 mouse assessed as increase in loss of righting reflex (LORR) in presence of ARC239 alpha2B-adrenoceptor antagonist at 0.60 mg/kg, ip; format: functional, organism-based; conditions: dose 0.6 mg/kg
[14] = biological target: T3, Alpha-2B adrenergic receptor (Homo sapiens, UniProt P18089); assay: Agonist activity at alpha2B-adrenoceptor (unknown origin) expressed in U2OS-EGFP-NFAT2-alpha2B-AR cells assessed as increase in intracellular calcium level measured after 15 mins incubation by Micro automated microscopy; format: functional, cell-based
T3 sequence (P18089 whole entry): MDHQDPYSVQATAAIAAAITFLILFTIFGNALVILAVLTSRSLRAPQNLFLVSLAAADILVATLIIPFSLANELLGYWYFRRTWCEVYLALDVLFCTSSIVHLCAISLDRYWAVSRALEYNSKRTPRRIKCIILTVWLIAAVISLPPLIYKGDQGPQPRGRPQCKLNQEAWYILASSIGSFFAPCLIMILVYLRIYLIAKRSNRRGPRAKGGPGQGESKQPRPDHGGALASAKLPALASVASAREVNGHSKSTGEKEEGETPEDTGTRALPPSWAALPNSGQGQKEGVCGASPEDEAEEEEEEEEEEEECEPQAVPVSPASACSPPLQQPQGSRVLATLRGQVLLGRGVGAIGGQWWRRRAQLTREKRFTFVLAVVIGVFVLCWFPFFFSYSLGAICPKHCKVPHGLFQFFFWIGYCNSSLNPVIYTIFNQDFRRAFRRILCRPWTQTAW

[15] = biological target: T4, Alpha-1D adrenergic receptor (Homo sapiens, UniProt P25100); assay: Binding affinity to human alpha1D-adrenoceptor
T4 sequence (P25100 whole entry): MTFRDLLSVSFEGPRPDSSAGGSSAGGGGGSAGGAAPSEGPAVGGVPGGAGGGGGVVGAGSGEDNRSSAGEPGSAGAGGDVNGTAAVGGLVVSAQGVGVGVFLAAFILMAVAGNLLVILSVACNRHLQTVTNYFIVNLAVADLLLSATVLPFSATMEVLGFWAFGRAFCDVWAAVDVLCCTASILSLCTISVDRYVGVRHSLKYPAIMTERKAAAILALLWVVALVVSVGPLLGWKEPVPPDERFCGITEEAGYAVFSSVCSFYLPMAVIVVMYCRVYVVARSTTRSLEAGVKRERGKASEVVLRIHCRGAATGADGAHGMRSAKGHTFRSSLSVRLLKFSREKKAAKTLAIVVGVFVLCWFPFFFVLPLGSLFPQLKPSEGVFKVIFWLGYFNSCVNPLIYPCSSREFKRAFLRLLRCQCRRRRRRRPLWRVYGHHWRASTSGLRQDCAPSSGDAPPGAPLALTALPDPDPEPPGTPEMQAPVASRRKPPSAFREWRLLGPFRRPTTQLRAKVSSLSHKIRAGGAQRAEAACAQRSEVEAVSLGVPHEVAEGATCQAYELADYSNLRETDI

[16] = biological target: T1, Alpha-2C adrenergic receptor; assay: Agonist activity at human alpha2C-adrenoceptor
[17] = biological target: T5, Alpha-1B adrenergic receptor (Homo sapiens, UniProt P35368); assay: Binding affinity to human alpha1B-adrenoceptor
T5 sequence (P35368 whole entry): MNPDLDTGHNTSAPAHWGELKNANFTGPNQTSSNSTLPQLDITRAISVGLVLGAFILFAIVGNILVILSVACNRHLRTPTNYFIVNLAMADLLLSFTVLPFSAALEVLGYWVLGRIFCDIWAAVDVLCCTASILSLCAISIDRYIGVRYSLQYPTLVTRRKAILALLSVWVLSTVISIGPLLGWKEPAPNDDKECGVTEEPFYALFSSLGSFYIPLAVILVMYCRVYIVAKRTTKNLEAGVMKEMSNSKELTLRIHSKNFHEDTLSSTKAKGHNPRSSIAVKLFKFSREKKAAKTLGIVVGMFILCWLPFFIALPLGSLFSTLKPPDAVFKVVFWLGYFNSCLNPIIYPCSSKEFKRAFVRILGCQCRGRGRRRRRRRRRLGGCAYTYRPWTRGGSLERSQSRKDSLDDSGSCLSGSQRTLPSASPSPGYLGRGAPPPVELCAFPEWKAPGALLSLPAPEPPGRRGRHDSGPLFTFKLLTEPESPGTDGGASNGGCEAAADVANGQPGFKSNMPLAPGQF

[18] = biological target: T3, Alpha-2B adrenergic receptor; assay: Agonist activity at human alpha2B-adrenoceptor
[19] = biological target: T2, Alpha-1A adrenergic receptor
Description: Binding affinity to human alpha1A-adrenoceptor

[20] = biological target: T6, Alpha-2A adrenergic receptor (Homo sapiens, UniProt P08913); assay: Agonist activity at human alpha2A adrenoceptor assessed as [35S]GTPgammaS binding by scintillation counting analysis; format: functional
T6 sequence (P08913 whole entry): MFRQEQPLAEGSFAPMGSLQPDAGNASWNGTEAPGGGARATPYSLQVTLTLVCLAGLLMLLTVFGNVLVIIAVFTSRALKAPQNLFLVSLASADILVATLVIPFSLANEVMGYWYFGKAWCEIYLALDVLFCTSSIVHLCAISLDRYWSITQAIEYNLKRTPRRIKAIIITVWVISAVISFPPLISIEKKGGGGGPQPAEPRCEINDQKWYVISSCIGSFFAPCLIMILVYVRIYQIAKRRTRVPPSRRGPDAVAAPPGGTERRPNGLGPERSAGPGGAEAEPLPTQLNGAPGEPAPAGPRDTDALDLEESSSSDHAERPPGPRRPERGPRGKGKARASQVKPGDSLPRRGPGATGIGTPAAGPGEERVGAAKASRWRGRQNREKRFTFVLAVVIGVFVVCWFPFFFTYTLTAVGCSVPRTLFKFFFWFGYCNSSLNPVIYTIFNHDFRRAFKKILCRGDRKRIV

[21] = biological target: T7, Adrenergic receptor alpha-2 (Homo sapiens, UniProt P08913+P18825+P18089); assay: Binding affinity to alpha2-adrenoceptor (unknown origin); format: protein assay
T7 sequence (P08913 whole entry): T6 sequence (P08913 whole entry)
T7 sequence (P18825 whole entry): T1 sequence (P18825 whole entry)
T7 sequence (P18089 whole entry): T3 sequence (P18089 whole entry)

[22] = biological target: T8, Adrenergic receptor alpha-1 (Homo sapiens, UniProt P35348+P25100+P35368); assay: Binding affinity to alpha1-adrenoceptor (unknown origin); format: protein assay
T8 sequence (P35348 whole entry): T2 sequence (P35348 whole entry)
T8 sequence (P25100 whole entry): T4 sequence (P25100 whole entry)
T8 sequence (P35368 whole entry): T5 sequence (P35368 whole entry)

## Brc1cccc2c1OCCC2c1c[nH]cn1 (configuration not stated)
Mus musculus [1]
  Activity: inactive
HEK293T [2]
  Activity: inactive
Mus musculus [3]
  Activity: inactive
HEK293T [4]
  Activity: inactive
[5]
  EC50: 21.3 nM
[6]
  microsomal CLint: 29 µL/min/mg
Mus musculus [7]
  Activity: Dose-Dependent Effect
Mus musculus [8]
  Activity: Active
[9]
  half-life: 47.8 min
HEK293T [10]
  Activity: Active
[11]
  EC50: 2.55 nM
Mus musculus [12]
  Activity: inactive
Mus musculus [13]
  Activity: Active
[14]
  EC50: 163 nM

## Cc1cccc([C@H](C)c2cnc[nH]2)c1C [DEXMEDETOMIDINE]
[15]
  Ki: 1230 nM
[5]
  EC50: 5.37 nM
[6]
  microsomal CLint: 8.89 µL/min/mg
[16]
  EC50: 28.8 nM
[9]
  half-life: 156 min
[17]
  Ki: 9.12 µM
[18]
  EC50: 3.31 nM
[11]
  EC50: 13 nM
[19]
  Ki: 1320 nM
[14]
  EC50: 1.91 nM

## CC(c1cccc(C2(C(F)(F)F)N=N2)c1)c1c[nH]cn1 (configuration not stated)
[20]
  pEC50: 6.53

## Cc1cccc2c1CCC2c1c[nH]cn1 (configuration not stated)
[21]
  pKi: 8.06
[22]
  pKi: 7.14
